In ChEMBL document CHEMBL1153552, “Comparative in vitro pharmacodynamics of caspofungin, micafungin, and anidulafungin against germinated and nongerminated Aspergillus conidia” (2008):
Calls of active or inactive are those of the source. The calls are words filed in the database; no cut-off is given here.

Assays:
[1] = system: Aspergillus flavus; assay: Antifungal activity against germinated Aspergillus flavus assessed as absence of visual fungal growth at 128 ug/mL; assay type: functional, organism-based
[2] = system: Aspergillus fumigatus; assay: Ratio of log2 of MEC for germinated Aspergillus fumigatus to log2 of MEC for nongerminated Aspergillus fumigatus; assay type: functional
[3] = system: Aspergillus flavus; assay: Effect on nongerminated Aspergillus flavus metabolic activity assessed as drug concentration at which fungal metabolic activity occurs after 2 hrs by XTT assay; assay type: functional
[4] = system: Aspergillus terreus; assay: Ratio of log2 of MEC for germinated Aspergillus terreus to log2 of MEC for nongerminated Aspergillus terreus; assay type: functional
[5] = system: Aspergillus flavus; assay: Effect on germinated Aspergillus flavus metabolic activity assessed as drug concentration at which fungal metabolic activity occurs after 2 hrs by XTT assay; assay type: functional
[6] = system: Aspergillus flavus; assay: Effect on Aspergillus flavus metabolic activity assessed number of twofold drug dilutions required for germinated fungal metabolic activity to nongerminated fungal metabolic activity; assay type: functional
[7] = system: Aspergillus fumigatus; assay: Effect on Aspergillus fumigatus metabolic activity assessed number of twofold drug dilutions required for germinated fungal metabolic activity to nongerminated fungal metabolic activity; assay type: functional
[8] = system: Aspergillus terreus; assay: Antifungal activity against nongerminated Aspergillus terreus assessed as lowest drug concentration that produced short, stubby and highly branched hyphae after 48 hrs by microscopic analysis; assay type: functional; conditions: read-out: MEC
[9] = system: Aspergillus flavus; assay: Antifungal activity against germinated Aspergillus flavus assessed as lowest drug concentration that produced short, stubby and highly branched hyphae after 48 hrs by microscopic analysis; assay type: functional; conditions: read-out: MEC
[10] = system: Aspergillus fumigatus; assay: Decrease in germinated Aspergillus fumigatus metabolism assessed as metabolic activity at 128 ug/mL after 48 hrs by XTT assay; assay type: functional; set-up: scale not given: the % may be the effect or the level left
[11] = system: Aspergillus terreus; assay: Effect on germinated Aspergillus terreus metabolic activity assessed as drug concentration at which fungal metabolic activity occurs after 2 hrs by XTT assay; assay type: functional
[12] = system: Aspergillus terreus; assay: Antifungal activity against germinated Aspergillus terreus assessed as absence of visual fungal growth at 128 ug/mL; assay type: functional, organism-based
[13] = system: Aspergillus flavus; assay: Decrease in nongerminated Aspergillus flavus metabolism assessed as metabolic activity at 64 ug/mL after 48 hrs by XTT assay; assay type: functional; set-up: scale not given: the % may be the effect or the level left
[14] = system: Aspergillus terreus; assay: Decrease in germinated Aspergillus terreus metabolism assessed as metabolic activity at 64 ug/mL after 48 hrs by XTT assay; assay type: functional; set-up: scale not given: the % may be the effect or the level left
[15] = system: Aspergillus flavus; assay: Decrease in nongerminated Aspergillus flavus metabolism assessed as metabolic activity at 128 ug/mL after 48 hrs by XTT assay; assay type: functional; set-up: scale not given: the % may be the effect or the level left
[16] = system: Aspergillus fumigatus; assay: Effect on germinated Aspergillus fumigatus metabolic activity assessed as drug concentration at which fungal metabolic activity occurs after 2 hrs by XTT assay; assay type: functional
[17] = system: Aspergillus fumigatus; assay: Decrease in germinated Aspergillus fumigatus metabolism assessed as metabolic activity at 64 ug/mL after 48 hrs by XTT assay; assay type: functional; set-up: scale not given: the % may be the effect or the level left
[18] = system: Aspergillus flavus; assay: Antifungal activity against nongerminated Aspergillus flavus assessed as lowest drug concentration that produced short, stubby and highly branched hyphae after 48 hrs by microscopic analysis; assay type: functional; conditions: read-out: MEC
[19] = system: Aspergillus terreus; assay: Decrease in germinated Aspergillus terreus metabolism assessed as metabolic activity at 128 ug/mL after 48 hrs by XTT assay; assay type: functional; set-up: scale not given: the % may be the effect or the level left
[20] = system: Aspergillus terreus; assay: Induction of maximal metabolic inhibition in germinated Aspergillus terreus assessed as minimal metabolic activity Ymin after 2 hrs by XTT assay; assay type: functional; set-up: scale not given: the % may be the effect or the level left
[21] = system: Aspergillus flavus; assay: Ratio of log2 of MEC for germinated Aspergillus flavus to log2 of MEC for nongerminated Aspergillus flavus; assay type: functional
[22] = system: Aspergillus flavus; assay: Induction of maximal metabolic inhibition in germinated Aspergillus flavus assessed as minimal metabolic activity Ymin after 2 hrs by XTT assay; assay type: functional; set-up: scale not given: the % may be the effect or the level left
[23] = system: Aspergillus flavus; assay: Decrease in germinated Aspergillus flavus metabolism assessed as metabolic activity at 128 ug/mL after 48 hrs by XTT assay; assay type: functional; set-up: scale not given: the % may be the effect or the level left
[24] = system: Aspergillus terreus; assay: Antifungal activity against nongerminated Aspergillus terreus assessed as absence of visual fungal growth at 128 ug/mL; assay type: functional, organism-based
[25] = system: Aspergillus fumigatus; assay: Antifungal activity against germinated Aspergillus fumigatus assessed as absence of visual fungal growth at 128 ug/mL; assay type: functional, organism-based
[26] = system: Aspergillus fumigatus; assay: Decrease in nongerminated Aspergillus fumigatus metabolism assessed as metabolic activity at 64 ug/mL after 48 hrs by XTT assay; assay type: functional; set-up: scale not given: the % may be the effect or the level left
[27] = system: Aspergillus fumigatus; assay: Induction of maximal metabolic inhibition in nongerminated Aspergillus fumigatus assessed as minimal metabolic activity Ymin after 2 hrs by XTT assay; assay type: functional; set-up: scale not given: the % may be the effect or the level left
[28] = system: Aspergillus terreus; assay: Decrease in nongerminated Aspergillus terreus metabolism assessed as metabolic activity at 64 ug/mL after 48 hrs by XTT assay; assay type: functional; set-up: scale not given: the % may be the effect or the level left
[29] = system: Aspergillus fumigatus; assay: Antifungal activity against nongerminated Aspergillus fumigatus assessed as absence of visual fungal growth at 128 ug/mL; assay type: functional, organism-based
[30] = system: Aspergillus terreus; assay: Antifungal activity against germinated Aspergillus terreus assessed as lowest drug concentration that produced short, stubby and highly branched hyphae after 48 hrs by microscopic analysis; assay type: functional; conditions: read-out: MEC
[31] = system: Aspergillus terreus; assay: Decrease in nongerminated Aspergillus terreus metabolism assessed as metabolic activity at 128 ug/mL after 48 hrs by XTT assay; assay type: functional; set-up: scale not given: the % may be the effect or the level left
[32] = system: Aspergillus fumigatus; assay: Effect on nongerminated Aspergillus fumigatus metabolic activity assessed as drug concentration at which fungal metabolic activity occurs after 2 hrs by XTT assay; assay type: functional
[33] = system: Aspergillus flavus; assay: Antifungal activity against nongerminated Aspergillus flavus assessed as absence of visual fungal growth at 128 ug/mL; assay type: functional, organism-based
[34] = system: Aspergillus fumigatus; assay: Decrease in nongerminated Aspergillus fumigatus metabolism assessed as metabolic activity at 128 ug/mL after 48 hrs by XTT assay; assay type: functional; set-up: scale not given: the % may be the effect or the level left
[35] = system: Aspergillus terreus; assay: Effect on nongerminated Aspergillus terreus metabolic activity assessed as drug concentration at which fungal metabolic activity occurs after 2 hrs by XTT assay; assay type: functional
[36] = system: Aspergillus flavus; assay: Induction of maximal metabolic inhibition in nongerminated Aspergillus flavus assessed as minimal metabolic activity Ymin after 2 hrs by XTT assay; assay type: functional; set-up: scale not given: the % may be the effect or the level left
[37] = system: Aspergillus terreus; assay: Effect on Aspergillus terreus metabolic activity assessed number of twofold drug dilutions required for germinated fungal metabolic activity to nongerminated fungal metabolic activity; assay type: functional
[38] = system: Aspergillus fumigatus; assay: Antifungal activity against germinated Aspergillus fumigatus assessed as lowest drug concentration that produced short, stubby and highly branched hyphae after 48 hrs by microscopic analysis; assay type: functional; conditions: read-out: MEC
[39] = system: Aspergillus fumigatus; assay: Antifungal activity against nongerminated Aspergillus fumigatus assessed as lowest drug concentration that produced short, stubby and highly branched hyphae after 48 hrs by microscopic analysis; assay type: functional; conditions: read-out: MEC
[40] = system: Aspergillus fumigatus; assay: Induction of maximal metabolic inhibition in germinated Aspergillus fumigatus assessed as minimal metabolic activity Ymin after 2 hrs by XTT assay; assay type: functional; set-up: scale not given: the % may be the effect or the level left
[41] = system: Aspergillus flavus; assay: Decrease in germinated Aspergillus flavus metabolism assessed as metabolic activity at 64 ug/mL after 48 hrs by XTT assay; assay type: functional; set-up: scale not given: the % may be the effect or the level left
[42] = system: Aspergillus terreus; assay: Induction of maximal metabolic inhibition in nongerminated Aspergillus terreus assessed as minimal metabolic activity Ymin after 2 hrs by XTT assay; assay type: functional; set-up: scale not given: the % may be the effect or the level left

CC[C@H](C)C[C@H](C)CCCCCCCCC(=O)N[C@H]1C[C@@H](O)[C@@H](NCCN)NC(=O)[C@@H]2[C@@H](O)CCN2C(=O)[C@H]([C@H](O)CCN)NC(=O)[C@H]([C@H](O)[C@@H](O)c2ccc(O)cc2)NC(=O)[C@@H]2C[C@@H](O)CN2C(=O)[C@H]([C@@H](C)O)NC1=O [CASPOFUNGIN]
Activity [1]: Active | Ratio [2]: 0 | EC5 [3]: 0.64 µg/mL | Ratio [4]: 1 | EC5 [5]: 0.87 µg/mL | Ratio [6]: 0.43 | Ratio [7]: 0.96 | minimal effective concentration [8]: 0.5 µg/mL | minimal effective concentration [9]: 1 µg/mL | Activity [10]: <5% | EC5 [11]: 1.06 µg/mL | Activity [12]: Active | Activity [13]: <5% | Activity [14]: <5% | Activity [15]: <5% | EC5 [16]: 1.2 µg/mL | Activity [17]: <5% | minimal effective concentration [18]: 1 µg/mL | Activity [19]: <5% | Activity [20]: 35% | Ratio [21]: 0 | Activity [22]: 21% | Activity [23]: <5% | Activity [24]: Active | Activity [25]: Active | Activity [26]: <5% | Activity [27]: 26% | Activity [28]: <5% | Activity [29]: Active | minimal effective concentration [30]: 1 µg/mL | Activity [31]: <5% | EC5 [32]: 0.67 µg/mL | Activity [33]: Active | Activity [34]: <5% | EC5 [35]: 0.65 µg/mL | Activity [36]: 17% | Ratio [37]: 1.12 | minimal effective concentration [38]: 1 µg/mL | minimal effective concentration [39]: 1 µg/mL | Activity [40]: 26% | Activity [41]: <5% | Activity [42]: 34%
